Data as given in ChEMBL document CHEMBL3627608, “Crystal structures of human RIP2 kinase catalytic domain complexed with ATP-competitive inhibitors: Foundations for understanding inhibitor selectivity” (Bioorg Med Chem, 2015).

Columns and labels:
[1] = target: Dual specificity tyrosine-phosphorylation-regulated kinase 1A (Homo sapiens) (UniProt Q13627); assay: Inhibition of DYRK1 (unknown origin) at 10 uM after 120 mins P33 radiolabeled kinase activity assay
[2] = target: Receptor tyrosine-protein kinase erbB-2 (Homo sapiens) (UniProt P04626); assay: Inhibition of ERBB2 (unknown origin) at 10 uM after 120 mins P33 radiolabeled kinase activity assay
Homo sapiens = organism: Homo sapiens; assay: Inhibition of PKCbeta2 (unknown origin) at 10 uM after 120 mins P33 radiolabeled kinase activity assay
[3] = target: Protein kinase C gamma type (Homo sapiens) (UniProt P05129); assay: Inhibition of PKCgamma (unknown origin) at 10 uM after 120 mins P33 radiolabeled kinase activity assay
[4] = target: T1, Inhibitor of nuclear factor kappa-B kinase subunit beta (Homo sapiens) (UniProt O14920); assay: Inhibition of IKKbeta (unknown origin) at 10 uM after 120 mins P33 radiolabeled kinase activity assay
T1 sequence (whole entry): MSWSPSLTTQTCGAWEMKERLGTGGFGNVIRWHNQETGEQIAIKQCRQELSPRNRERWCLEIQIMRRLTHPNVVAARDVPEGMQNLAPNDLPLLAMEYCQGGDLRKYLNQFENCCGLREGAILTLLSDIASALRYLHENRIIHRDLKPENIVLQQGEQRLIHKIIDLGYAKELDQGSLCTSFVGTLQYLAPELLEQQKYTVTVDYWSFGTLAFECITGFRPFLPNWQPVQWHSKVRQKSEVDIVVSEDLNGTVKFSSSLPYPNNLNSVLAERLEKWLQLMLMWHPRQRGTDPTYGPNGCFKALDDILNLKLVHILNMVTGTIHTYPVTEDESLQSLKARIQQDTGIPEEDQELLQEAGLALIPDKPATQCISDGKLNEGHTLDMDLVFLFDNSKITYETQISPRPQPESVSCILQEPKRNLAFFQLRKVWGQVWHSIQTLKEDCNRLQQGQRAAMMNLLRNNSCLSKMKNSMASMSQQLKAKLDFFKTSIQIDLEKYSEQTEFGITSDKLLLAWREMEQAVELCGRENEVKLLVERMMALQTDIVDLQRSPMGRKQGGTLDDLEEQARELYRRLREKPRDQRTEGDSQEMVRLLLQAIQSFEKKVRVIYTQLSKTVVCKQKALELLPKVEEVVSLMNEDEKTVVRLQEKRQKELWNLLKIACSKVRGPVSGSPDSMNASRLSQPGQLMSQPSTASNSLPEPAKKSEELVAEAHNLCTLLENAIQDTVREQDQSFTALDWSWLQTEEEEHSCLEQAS

[5] = target: Myosin light chain kinase, smooth muscle (Homo sapiens) (UniProt Q15746); assay: Inhibition of MLCK (unknown origin) at 10 uM after 120 mins P33 radiolabeled kinase activity assay
[6] = target: Ribosomal protein S6 kinase alpha-5 (Homo sapiens) (UniProt O75582); assay: Inhibition of MSK1 (unknown origin) at 10 uM after 120 mins P33 radiolabeled kinase activity assay
[7] = target: T2, Serine/threonine-protein kinase 4 (Homo sapiens) (UniProt Q13043); assay: Inhibition of MST1 (unknown origin) at 10 uM after 120 mins P33 radiolabeled kinase activity assay
T2 sequence (whole entry): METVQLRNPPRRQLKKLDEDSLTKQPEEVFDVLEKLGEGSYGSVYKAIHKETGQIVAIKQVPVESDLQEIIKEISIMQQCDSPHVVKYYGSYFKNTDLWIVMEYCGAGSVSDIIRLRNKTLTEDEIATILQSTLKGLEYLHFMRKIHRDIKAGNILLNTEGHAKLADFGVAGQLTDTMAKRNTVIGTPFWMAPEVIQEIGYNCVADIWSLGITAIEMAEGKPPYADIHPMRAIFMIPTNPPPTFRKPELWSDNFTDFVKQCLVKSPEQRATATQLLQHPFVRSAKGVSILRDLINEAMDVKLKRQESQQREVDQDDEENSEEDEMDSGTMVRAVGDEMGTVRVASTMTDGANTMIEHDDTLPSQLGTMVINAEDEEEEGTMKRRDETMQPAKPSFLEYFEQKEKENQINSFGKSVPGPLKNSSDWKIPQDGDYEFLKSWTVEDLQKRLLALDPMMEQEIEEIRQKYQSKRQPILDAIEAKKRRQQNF

[8] = target: Serine/threonine-protein kinase SIK2 (Homo sapiens) (UniProt Q9H0K1); assay: Inhibition of SIK2 (unknown origin) at 10 uM after 120 mins P33 radiolabeled kinase activity assay
[9] = target: T3, Dual specificity mitogen-activated protein kinase kinase 7 (Homo sapiens) (UniProt O14733); assay: Inhibition of MKK7 (unknown origin) at 10 uM after 120 mins P33 radiolabeled kinase activity assay
T3 sequence (whole entry): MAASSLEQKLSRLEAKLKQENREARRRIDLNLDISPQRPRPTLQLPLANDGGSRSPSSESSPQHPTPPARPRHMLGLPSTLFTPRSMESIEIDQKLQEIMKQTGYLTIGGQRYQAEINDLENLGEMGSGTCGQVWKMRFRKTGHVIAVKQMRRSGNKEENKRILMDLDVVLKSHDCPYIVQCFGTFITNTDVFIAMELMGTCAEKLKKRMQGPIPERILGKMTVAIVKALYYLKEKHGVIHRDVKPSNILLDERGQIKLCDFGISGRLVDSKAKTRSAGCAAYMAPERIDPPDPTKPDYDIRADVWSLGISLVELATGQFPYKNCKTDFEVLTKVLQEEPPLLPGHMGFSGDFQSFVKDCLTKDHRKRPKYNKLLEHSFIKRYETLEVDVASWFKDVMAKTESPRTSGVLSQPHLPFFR

[10] = target: Cyclin-dependent kinase 5/CDK5 activator 1 (Homo sapiens) (UniProt Q00535+Q15078); assay: Inhibition of CDK5/p25 (unknown origin) at 10 uM after 120 mins P33 radiolabeled kinase activity assay; type: protein-complex assay
[11] = target: Mitogen-activated protein kinase kinase kinase 12 (Homo sapiens) (UniProt Q12852); assay: Inhibition of DLK (unknown origin) at 10 uM after 120 mins P33 radiolabeled kinase activity assay
Sequence of Mitogen-activated protein kinase kinase kinase 12 (Homo sapiens) (Q12852 whole entry, looked up): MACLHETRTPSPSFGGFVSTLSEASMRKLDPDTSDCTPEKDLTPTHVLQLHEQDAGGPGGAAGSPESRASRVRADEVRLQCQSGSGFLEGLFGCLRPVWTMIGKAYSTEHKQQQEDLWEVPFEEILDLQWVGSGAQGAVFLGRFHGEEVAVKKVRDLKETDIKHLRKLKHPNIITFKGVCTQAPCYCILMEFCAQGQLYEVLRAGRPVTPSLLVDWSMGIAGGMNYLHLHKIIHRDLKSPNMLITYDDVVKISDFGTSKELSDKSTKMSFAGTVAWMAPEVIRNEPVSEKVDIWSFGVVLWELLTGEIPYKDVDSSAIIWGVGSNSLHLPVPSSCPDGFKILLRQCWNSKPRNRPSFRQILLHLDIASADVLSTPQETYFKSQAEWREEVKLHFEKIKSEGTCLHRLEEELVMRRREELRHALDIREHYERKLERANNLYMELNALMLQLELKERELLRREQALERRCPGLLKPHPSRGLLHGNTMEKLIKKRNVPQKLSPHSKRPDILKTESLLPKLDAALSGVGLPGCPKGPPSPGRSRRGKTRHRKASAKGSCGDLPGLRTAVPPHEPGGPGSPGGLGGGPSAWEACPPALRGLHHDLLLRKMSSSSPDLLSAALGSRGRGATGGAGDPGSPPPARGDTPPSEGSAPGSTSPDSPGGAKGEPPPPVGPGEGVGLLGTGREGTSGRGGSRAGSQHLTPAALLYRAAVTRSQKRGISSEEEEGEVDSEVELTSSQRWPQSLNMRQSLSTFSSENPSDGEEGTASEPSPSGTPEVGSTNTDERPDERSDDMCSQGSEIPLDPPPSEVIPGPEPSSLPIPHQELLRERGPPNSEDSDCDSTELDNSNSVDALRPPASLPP

Sequence of Serine/threonine-protein kinase SIK2 (Homo sapiens) (Q9H0K1 whole entry, looked up): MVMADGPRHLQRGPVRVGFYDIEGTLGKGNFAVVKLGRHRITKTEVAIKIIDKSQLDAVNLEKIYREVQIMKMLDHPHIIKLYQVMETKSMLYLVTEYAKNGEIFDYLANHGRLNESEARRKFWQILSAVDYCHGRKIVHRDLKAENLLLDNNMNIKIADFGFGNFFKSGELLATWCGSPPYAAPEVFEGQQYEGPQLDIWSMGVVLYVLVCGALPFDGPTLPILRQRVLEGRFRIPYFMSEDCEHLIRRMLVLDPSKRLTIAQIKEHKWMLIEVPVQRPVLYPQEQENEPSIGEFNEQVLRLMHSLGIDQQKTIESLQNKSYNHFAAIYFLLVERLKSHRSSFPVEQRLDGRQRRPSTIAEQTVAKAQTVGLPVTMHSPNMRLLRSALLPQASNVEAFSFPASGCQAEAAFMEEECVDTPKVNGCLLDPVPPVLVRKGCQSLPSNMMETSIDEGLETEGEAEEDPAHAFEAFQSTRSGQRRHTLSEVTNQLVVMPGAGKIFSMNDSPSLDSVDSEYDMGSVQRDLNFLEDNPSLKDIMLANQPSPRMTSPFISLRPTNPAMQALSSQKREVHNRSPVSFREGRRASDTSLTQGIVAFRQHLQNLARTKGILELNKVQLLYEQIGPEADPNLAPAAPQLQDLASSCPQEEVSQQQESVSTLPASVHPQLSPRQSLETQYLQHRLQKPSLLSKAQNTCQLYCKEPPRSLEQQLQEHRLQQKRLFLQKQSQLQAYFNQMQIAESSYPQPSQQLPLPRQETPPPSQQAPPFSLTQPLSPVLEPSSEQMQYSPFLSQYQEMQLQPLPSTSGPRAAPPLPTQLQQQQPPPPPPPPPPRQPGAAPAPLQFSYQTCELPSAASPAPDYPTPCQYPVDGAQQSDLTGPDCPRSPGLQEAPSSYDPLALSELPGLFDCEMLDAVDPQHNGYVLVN
Sequence of Myosin light chain kinase, smooth muscle (Homo sapiens) (Q15746 whole entry): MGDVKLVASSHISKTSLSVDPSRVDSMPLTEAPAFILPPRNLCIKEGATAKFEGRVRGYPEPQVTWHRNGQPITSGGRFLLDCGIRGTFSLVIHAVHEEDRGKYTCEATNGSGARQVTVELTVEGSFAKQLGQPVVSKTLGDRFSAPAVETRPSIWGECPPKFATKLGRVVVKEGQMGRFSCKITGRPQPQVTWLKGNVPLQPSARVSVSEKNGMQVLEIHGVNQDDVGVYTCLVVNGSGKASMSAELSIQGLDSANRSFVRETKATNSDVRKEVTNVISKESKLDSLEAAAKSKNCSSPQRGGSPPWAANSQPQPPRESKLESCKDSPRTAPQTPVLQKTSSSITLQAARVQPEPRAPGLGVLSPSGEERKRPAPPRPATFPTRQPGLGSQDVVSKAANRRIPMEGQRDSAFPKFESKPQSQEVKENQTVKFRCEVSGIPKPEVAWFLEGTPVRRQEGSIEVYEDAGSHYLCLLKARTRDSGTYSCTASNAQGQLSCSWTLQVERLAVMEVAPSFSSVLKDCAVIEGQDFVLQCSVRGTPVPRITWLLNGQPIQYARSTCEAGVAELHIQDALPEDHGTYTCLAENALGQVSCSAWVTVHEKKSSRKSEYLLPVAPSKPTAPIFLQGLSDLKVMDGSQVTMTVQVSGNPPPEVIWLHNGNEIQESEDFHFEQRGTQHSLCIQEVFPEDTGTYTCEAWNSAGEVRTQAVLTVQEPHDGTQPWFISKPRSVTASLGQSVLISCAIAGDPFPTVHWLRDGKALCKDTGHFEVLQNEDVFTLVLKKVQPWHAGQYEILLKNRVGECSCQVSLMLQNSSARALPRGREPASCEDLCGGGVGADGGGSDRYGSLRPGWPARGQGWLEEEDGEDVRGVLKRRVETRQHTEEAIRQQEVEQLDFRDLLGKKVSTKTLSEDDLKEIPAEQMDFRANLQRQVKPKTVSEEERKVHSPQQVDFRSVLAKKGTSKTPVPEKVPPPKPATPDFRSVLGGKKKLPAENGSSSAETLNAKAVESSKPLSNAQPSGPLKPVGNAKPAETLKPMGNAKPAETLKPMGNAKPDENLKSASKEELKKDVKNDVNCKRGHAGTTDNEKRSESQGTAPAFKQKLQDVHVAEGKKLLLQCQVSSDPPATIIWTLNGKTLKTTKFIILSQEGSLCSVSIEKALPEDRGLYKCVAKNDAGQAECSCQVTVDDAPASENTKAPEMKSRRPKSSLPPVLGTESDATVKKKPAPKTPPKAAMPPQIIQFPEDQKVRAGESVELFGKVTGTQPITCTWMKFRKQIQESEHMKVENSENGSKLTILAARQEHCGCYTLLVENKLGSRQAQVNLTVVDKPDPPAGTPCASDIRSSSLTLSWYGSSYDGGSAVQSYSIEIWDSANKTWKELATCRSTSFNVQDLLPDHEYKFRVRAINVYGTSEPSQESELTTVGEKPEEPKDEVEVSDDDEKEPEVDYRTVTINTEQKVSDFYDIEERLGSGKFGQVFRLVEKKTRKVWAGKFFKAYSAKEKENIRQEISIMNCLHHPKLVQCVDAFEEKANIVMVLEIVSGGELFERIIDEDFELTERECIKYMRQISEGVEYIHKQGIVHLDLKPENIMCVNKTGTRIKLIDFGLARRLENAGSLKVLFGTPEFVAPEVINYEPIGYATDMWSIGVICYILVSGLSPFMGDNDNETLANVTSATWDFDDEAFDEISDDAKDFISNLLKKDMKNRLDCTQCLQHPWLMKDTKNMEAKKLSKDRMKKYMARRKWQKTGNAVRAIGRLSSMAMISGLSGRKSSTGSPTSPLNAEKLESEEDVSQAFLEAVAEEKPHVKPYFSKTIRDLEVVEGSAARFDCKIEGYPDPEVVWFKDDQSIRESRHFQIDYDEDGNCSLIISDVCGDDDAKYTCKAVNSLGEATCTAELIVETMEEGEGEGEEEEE
Sequence of Ribosomal protein S6 kinase alpha-5 (Homo sapiens) (O75582 whole entry, looked up): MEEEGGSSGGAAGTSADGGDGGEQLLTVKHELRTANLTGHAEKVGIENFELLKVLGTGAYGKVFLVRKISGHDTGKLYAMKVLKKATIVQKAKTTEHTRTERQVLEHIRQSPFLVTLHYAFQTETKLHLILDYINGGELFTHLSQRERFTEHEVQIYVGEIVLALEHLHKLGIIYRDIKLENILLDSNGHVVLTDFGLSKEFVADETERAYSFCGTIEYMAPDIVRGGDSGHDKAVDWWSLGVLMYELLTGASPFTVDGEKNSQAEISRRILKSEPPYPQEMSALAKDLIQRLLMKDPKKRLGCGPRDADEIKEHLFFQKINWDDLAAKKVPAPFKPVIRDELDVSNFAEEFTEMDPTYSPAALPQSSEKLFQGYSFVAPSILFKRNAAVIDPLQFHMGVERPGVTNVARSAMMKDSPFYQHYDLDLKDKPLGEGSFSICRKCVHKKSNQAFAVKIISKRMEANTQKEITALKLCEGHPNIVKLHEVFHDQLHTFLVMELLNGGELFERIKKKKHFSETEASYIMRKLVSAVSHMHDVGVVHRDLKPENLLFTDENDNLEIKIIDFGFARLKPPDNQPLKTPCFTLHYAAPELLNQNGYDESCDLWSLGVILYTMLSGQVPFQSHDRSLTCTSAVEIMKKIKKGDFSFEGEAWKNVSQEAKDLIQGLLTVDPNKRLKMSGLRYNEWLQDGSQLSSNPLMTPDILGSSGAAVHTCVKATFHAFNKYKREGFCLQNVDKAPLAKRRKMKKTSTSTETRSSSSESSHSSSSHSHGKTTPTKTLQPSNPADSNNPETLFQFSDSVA
Sequence of Cyclin-dependent kinase 5/CDK5 activator 1 (Homo sapiens) (Q00535 whole entry): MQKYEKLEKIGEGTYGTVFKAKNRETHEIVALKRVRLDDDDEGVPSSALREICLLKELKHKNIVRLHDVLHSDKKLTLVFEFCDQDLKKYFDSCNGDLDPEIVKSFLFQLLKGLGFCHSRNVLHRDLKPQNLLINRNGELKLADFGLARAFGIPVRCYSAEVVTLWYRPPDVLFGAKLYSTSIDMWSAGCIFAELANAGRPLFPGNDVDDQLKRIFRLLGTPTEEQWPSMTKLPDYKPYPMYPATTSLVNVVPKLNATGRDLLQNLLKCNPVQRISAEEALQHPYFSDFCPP
Sequence of Cyclin-dependent kinase 5/CDK5 activator 1 (Homo sapiens) (Q15078 99-307 partner limits assumed): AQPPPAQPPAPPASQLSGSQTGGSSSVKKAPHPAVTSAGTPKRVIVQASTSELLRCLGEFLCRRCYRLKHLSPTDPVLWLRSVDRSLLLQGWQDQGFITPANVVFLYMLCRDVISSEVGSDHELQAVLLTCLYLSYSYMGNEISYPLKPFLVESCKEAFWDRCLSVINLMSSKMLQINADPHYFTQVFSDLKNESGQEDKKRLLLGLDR

Row | inhibition [1] [%] | inhibition [2] [%] | inhibition (Homo sapiens) [%] | inhibition [3] [%] | inhibition [4] [%] | inhibition [5] [%] | inhibition [6] [%] | inhibition [7] [%] | inhibition [8] [%] | inhibition [9] [%] | inhibition [10] [%] | inhibition [11] [%] | Compound
1 | 31.6 | 95.3 | 9.1 | 10.9 | 1.51 | 15.6 | 5.17 | 16 | 97.2 | 7.17 | 92.6 | 53 | CS(=O)(=O)c1cccc(Nc2nccc(-c3sc(N4CCOCC4)nc3-c3cccc(NS(=O)(=O)c4c(F)cccc4F)c3)n2)c1
2 | 9.38 | 2.53 | 31.5 | 4.86 | -5.88 | 17.6 | 7.07 | 9.73 | 17 | 2 | 1.93 | 5.39 | COCCNC(=O)c1ccc2c(c1)nc(-c1cnc(-c3ccc(Cl)cc3)[nH]1)n2CCOC
3 | 8.89 | -7.24 | 9.88 | 2.25 | -0.16 | 19.4 | 49.5 | 11.5 | 19.2 | 22.7 | 49.4 | 8.04 | CC(C)(C)c1cc(NC(=O)Nc2ccc(Oc3ccncc3)cc2)no1
